From patent US20120004200A1, “TOPICAL PHARMACEUTICAL COMPOSITION CONTAINING A WATER-SENSITIVE ACTIVE PRINCIPLE” (GALDERMA S.A., priority 2008, published 2012)
Like-named read-outs stand apart in the source and are kept apart here. Values belong to the molecule of their own block, whether it stands above or below them.

Legend:
[1] = T 3 months, 4% hydroquinone
Method: The preparations are prepared according to the following proportions: 4% of hydroquinone, a sufficient amount of solvent oil to obtain 100%.
(§1) Assay technique by HPLC against reference substance.

[2] = Stability of calcitriol in various solvent oils; assay type: physicochemical; conditions: RT
Method: In order to optimize the dissolution of the active agent to be incorporated into the compositions according to the invention, stability tests are performed in various solvent oils: The preparations are prepared according to the following proportions: 0.00666% of calcitriol/0.29629% of BHT, a sufficient amount of solvent oil to obtain 100%. Assay technique by HPLC against reference substance.

[3] = Stability of rucinol in various solvent oils; assay type: physicochemical; conditions: 40° C., T 1 month, 5% rucinol
Method: The preparations are prepared according to the following proportions: 5% of rucinol, a sufficient amount of solvent oil to obtain 100%.
as §1

[4] = Stability of ivermectin in various solvent oils; assay type: physicochemical; conditions: 40° C., T 1 month, 1% ivermectin
Method: The preparations are prepared according to the following proportions: 1% of ivermectin, a sufficient amount of solvent oil to obtain 100%.
as §1

% Hydroquinone/To ([1]; solvent PPG-15 stearyl ether, 40° C.): 96.00%
% Hydroquinone/To ([1]; solvent caprylic/capric triglycerides, 40° C.): 95.00%
% Hydroquinone/To ([1]; solvent diisopropyl adipate, temperature not given): 97.4%
Molecule: Oc1ccc(O)cc1 [Hydroquinone, hydroquinone]

% Calcitriol/To ([2]; solvent PPG-15 stearyl ether, T 1 month): 100.00%
% Calcitriol/To ([2]; solvent caprylic/capric triglycerides, T 1 month, 0.00666% calcitriol, 0.29629% BHT): 100.3%
% Calcitriol/To ([2]; solvent caprylic/capric triglycerides, T 3 months): 99.9%
% Calcitriol/To ([2]; solvent diisopropyl adipate, T 1 month): 101.5%
% Calcitriol/To ([2]; solvent diisopropyl adipate, T 3 months): 97.2%
% Calcitriol/To ([2]; solvent octyldodecanol, T 1 month): 98.3%
% Calcitriol/To ([2]; solvent octyldodecanol, T 3 months): 95.00%
Molecule: C=C1/C(=C\C=C2/CCC[C@]3(C)[C@@H]([C@H](C)CCCC(C)(C)O)CC[C@@H]23)C[C@@H](O)C[C@@H]1O [Calcitriol, calcitriol]

% Rucinol (% LC) ([3]; solvent PEG-8 caprylic/capric triglycerides): 100 % LC
% Rucinol (% LC) ([3]; solvent PEG-35 castor oil): 96 % LC
% Rucinol (% LC) ([3]; solvent PPG-15 stearyl ether): 95 % LC
% Rucinol (% LC) ([3]; solvent caprylic/capric triglycerides): 99 % LC
Molecule: CCCCc1ccc(O)cc1O [Rucinol, rucinol]

Molecule: ivermectin
% Ivermectin/To ([4]; solvent PPG-15 stearyl ether): 98.07%
% Ivermectin/To ([4]; solvent benzyl alcohol): 98.6%
% Ivermectin/To ([4]; solvent diisopropyl adipate): 96.7%
% Ivermectin/To ([4]; solvent phenoxyethanol): 98.6%
